Test system: DN rats
Assay: type II diabetic nephropathy (DN) rat model (high-sugar high-fat diet + streptozocin)
Assay type: in vivo, SD (Sprague Dawley) rats
Settings: for BUN / CREA / Glycated hemoglobin / Urinary protein / mALB (microalbumin in urine) / ICAM-1 / IL-1β / IL-6 / MDA / NF-κB / SOD / T-AOC / TGF-β1 / TNF-α / Glucose (GLU) / HDL-C / LDL-C / TC / TG / UA / Kidney coefficient / VCAM-1: gavage, 6 weeks; for Urinary protein / mALB (microalbumin in urine): 6-hour urine; for ICAM-1 / IL-1β / IL-6 / MDA / NF-κB / SOD / T-AOC / TGF-β1 / TNF-α / VCAM-1: renal tissues; for Glucose (GLU) / HDL-C / LDL-C / TC / TG / UA: serum; for Kidney coefficient: weights of two kidneys/body weight
Description: The solid dispersions are prepared through a solvent method, comprising steps of: respectively precisely weighing LM49, PVPK30 and tween80 with a weight ratio of 1:5:1, and A8, PVPK30 and tween80 with a weight ratio of 1:4:1; dissolving with appropriate absolute ethyl alcohol, continuously stirring, and uniformly mixing; placing on the water bath at 60° C., evaporating and removing the absolute ethyl alcohol, and obtaining a viscous material; placing in the freezer at −20° C., and freezing for 2 hours; taking out from the freezer, then placing in the vacuum drying oven, and drying for 24 hours; after becoming embrittlement, smashing and sieving with a sieve of 80 meshes, and then placing in the dryer for storage.
The healthy adult male SD rats (having a weight of 180-220 g) are fed with the high-sugar and high-fat diet for 4 weeks; the rats are fasting overnight; and streptozocin (STZ) of 40 mg/kg is intraperitoneally injected into the rats. The rats of normal control group are injected with the sodium citrate buffer of same volume; 72 hours later, the rats are fasting for 12 hours. […] During the administration period, the successfully established model rats are still fed with the high-sugar and high-fat diet, while the rats of the normal control group are fed with the normal diet.
After administration for 6 weeks, 6-hour urine of the rats is collected with the metabolism cage.
The rats are fasting overnight and anesthetized intraperitoneally, then the abdominal aorta blood thereof is drawn for measuring the related indexes. The two kidneys of each rat are washed with the normal saline; weights of the kidneys are recorded; and the kidney coefficient (weights of two kidneys/body weight) is calculated. The renal tissues (comprising the glomerulus and renal tubules) at the same part of the left kidney are cut lengthwise and immersed in the 10% neutral formalin for pathomorphology analysis, and the other parts of the left kidney are used for biochemical index measurement; the right kidney is used for mechanism research and stored in the freezer at −80° C.
After successfully establishing the model rats, expect the normal control group (ten rats), the remaining rats are randomly divided into eight groups, wherein each group has twelve rats. The eight groups are respectively the model group, the LM49 solid dispersion low-dose group (with the drug concentration of 3 mg/kg), the LM49 solid dispersion medium-dose group (with the drug concentration of 9 mg/kg), the LM49 solid dispersion high-dose group (with the drug concentration of 27 mg/kg), the A8 solid dispersion low-dose group (with the drug concentration of 3 mg/kg), the A8 solid dispersion medium-dose group (with the drug concentration of 9 mg/kg), the A8 solid dispersion high-dose group (with the drug concentration of 27 mg/kg), and the captopril control group (with the drug concentration of 15 mg/kg).
Administration Way: By Gavage.
The rats of the normal control group and the model group are administrated with the normal saline of 1.0 ml/100 g; the rats of the positive control group, the LM49 solid dispersion high-dose, medium-dose and low-dose groups and the A8 solid dispersion high-dose, medium-dose and low-dose groups are respectively administrated with the drugs of different concentrations, and the administration volume is 1.0 ml/100 g.
The solid dispersions are dissolved by the normal saline; and the rats of the positive control group are administrated with the 0.5% CMC-Na (sodium carboxymethyl cellulose) suspension.
The rats are administrated seven days a week, for totally six weeks.
The IBM SPSS Statistics 20 software is used for data processing, and the data is represented in x±s. The one-way analysis of variance (ANOVA) is adopted for comparison among the groups. According to the homogeneity test results of variance, if the variance is equal, the LSD (least significant difference) test is adopted; if the variance is unequal, the Dunnett's T3 test is adopted. […]

O=C(c1cc(OC(=O)N2CCOCC2)c(OC(=O)N2CCOCC2)cc1Cl)c1cc(Cl)ccc1OC(=O)N1CCOCC1 [A8, 4,5,2′-tris(4-morpholinemethanoyl)-2,5′-dichlorobenzophenone]
BUN (DN rats, high-dose 27 mg/kg): 10.05 ± 1.61 mmol/L | CREA (DN rats, high-dose 27 mg/kg): 52.06 ± 1.66 µmol/L | Glycated hemoglobin (DN rats, high-dose 27 mg/kg): 6.44 ± 0.53^□□● % | Urinary protein (DN rats, high-dose 27 mg/kg): 1.42 ± 0.71^□□●●▴ mg/6 h | mALB (microalbumin in urine) (DN rats, high-dose 27 mg/kg): 39.00 ± 7.58^□□●●▴▴ μg/6 h | ICAM-1 (DN rats, high-dose 27 mg/kg): 322.5 ± 85.70 pg/mgprog | IL-1β (DN rats, high-dose 27 mg/kg): 133.45 ± 24.68 pg/mgprog | IL-6 (DN rats, high-dose 27 mg/kg): 71.29 ± 14.14^□□● pg/mgprog | MDA (DN rats, high-dose 27 mg/kg): 1.42 ± 0.25 nmol/mgprog | NF-κB (DN rats, high-dose 27 mg/kg): 298.32 ± 58.92^□□▴▴◯◯ pg/mgprog | SOD (DN rats, high-dose 27 mg/kg): 4.37 ± 1.25 U/mgprog | T-AOC (DN rats, high-dose 27 mg/kg): 1.32 ± 0.17 U/mgprog | TGF-β1 (DN rats, high-dose 27 mg/kg): 21.36 ± 4.64^□□●●▴▴ pg/mgprot | TNF-α (DN rats, high-dose 27 mg/kg): 304.51 ± 73.47^□ pg/mgprog | Glucose (GLU) (DN rats, high-dose 27 mg/kg): 9.75 ± 2.11^□□●●▴◯ mmol/L | HDL-C (DN rats, high-dose 27 mg/kg): 1.20 ± 0.27 mmol/L | LDL-C (DN rats, high-dose 27 mg/kg): 1.01 ± 0.20^□□●▴ mmol/L | TC (DN rats, high-dose 27 mg/kg): 1.42 ± 0.19^□□●●▴◯ mmol/L | TG (DN rats, high-dose 27 mg/kg): 0.30 ± 0.08^□□ mmol/L | UA (DN rats, high-dose 27 mg/kg): 26.44 ± 5.85^□□●● μmol/L | Kidney coefficient (DN rats, high-dose 27 mg/kg): 0.86 ± 0.05^□ % | lesions of the renal tissues (DN rats, kidney pathology (HE, Masson staining)): effectively reduce the lesions of the renal tissues | BUN (DN rats, low-dose 3 mg/kg): 10.56 ± 1.74 mmol/L | CREA (DN rats, low-dose 3 mg/kg): 54.16 ± 2.95 µmol/L | Glycated hemoglobin (DN rats, low-dose 3 mg/kg): 8.64 ± 0.45% | Urinary protein (DN rats, low-dose 3 mg/kg): 3.64 ± 0.65^□□ mg/6 h | mALB (microalbumin in urine) (DN rats, low-dose 3 mg/kg): 88.91 ± 10.33^□□ μg/6 h | ICAM-1 (DN rats, low-dose 3 mg/kg): 339.84 ± 92.15 pg/mgprog | IL-1β (DN rats, low-dose 3 mg/kg): 178.45 ± 31.59 pg/mgprog | IL-6 (DN rats, low-dose 3 mg/kg): 139.85 ± 55.41^□ pg/mgprog | MDA (DN rats, low-dose 3 mg/kg): 1.52 ± 0.38 nmol/mgprog | NF-κB (DN rats, low-dose 3 mg/kg): 1601.45 ± 206.73^□●● ^ pg/mgprog | SOD (DN rats, low-dose 3 mg/kg): 5.57 ± 1.75 U/mgprog | T-AOC (DN rats, low-dose 3 mg/kg): 1.39 ± 0.19 U/mgprog | TGF-β1 (DN rats, low-dose 3 mg/kg): 59.35 ± 7.34^□□ pg/mgprot | TNF-α (DN rats, low-dose 3 mg/kg): 485.60 ± 138.80 pg/mgprog | VCAM-1 (DN rats, low-dose 3 mg/kg): 37.85 ± 9.28 pg/mgprog | Glucose (GLU) (DN rats, low-dose 3 mg/kg): 13.11 ± 3.95^□□ mmol/L | HDL-C (DN rats, low-dose 3 mg/kg): 1.21 ± 0.28 mmol/L | LDL-C (DN rats, low-dose 3 mg/kg): 1.77 ± 0.57^□□ mmol/L | TC (DN rats, low-dose 3 mg/kg): 2.87 ± 0.69^□□ mmol/L | TG (DN rats, low-dose 3 mg/kg): 0.39 ± 0.05^□□ mmol/L | UA (DN rats, low-dose 3 mg/kg): 28.22 ± 7.14^□□●● μmol/L | Kidney coefficient (DN rats, low-dose 3 mg/kg): 1.06 ± 0.05% | BUN (DN rats, medium-dose 9 mg/kg): 10.07 ± 2.85 mmol/L | CREA (DN rats, medium-dose 9 mg/kg): 53.06 ± 3.75 µmol/L | Glycated hemoglobin (DN rats, medium-dose 9 mg/kg): 7.33 ± 0.77^□ % | Urinary protein (DN rats, medium-dose 9 mg/kg): 2.80 ± 1.02^□□●● mg/6 h | mALB (microalbumin in urine) (DN rats, medium-dose 9 mg/kg): 51.76 ± 9.44^□□●▴ μg/6 h | ICAM-1 (DN rats, medium-dose 9 mg/kg): 321.63 ± 82.35 pg/mgprog | IL-1β (DN rats, medium-dose 9 mg/kg): 155.22 ± 19.45 pg/mgprog | IL-6 (DN rats, medium-dose 9 mg/kg): 111.69 ± 35.86^□ pg/mgprog | MDA (DN rats, medium-dose 9 mg/kg): 1.48 ± 0.16 nmol/mgprog | NF-κB (DN rats, medium-dose 9 mg/kg): 786.93 ± 79.73^□□▴▴● pg/mgprog | SOD (DN rats, medium-dose 9 mg/kg): 5.12 ± 1.41 U/mgprog | T-AOC (DN rats, medium-dose 9 mg/kg): 1.37 ± 0.31 U/mgprog | TGF-β1 (DN rats, medium-dose 9 mg/kg): 27.91 ± 5.90^□□▴▴ pg/mgprot | TNF-α (DN rats, medium-dose 9 mg/kg): 321.27 ± 86.34^□ pg/mgprog | VCAM-1 (DN rats, medium-dose 9 mg/kg): 31.09 ± 5.42 pg/mgprog | Glucose (GLU) (DN rats, medium-dose 9 mg/kg): 11.86 ± 2.96^□□▴ mmol/L | HDL-C (DN rats, medium-dose 9 mg/kg): 1.23 ± 0.40 mmol/L | LDL-C (DN rats, medium-dose 9 mg/kg): 1.41 ± 0.33^□□ mmol/L | TC (DN rats, medium-dose 9 mg/kg): 2.33 ± 0.58^□□ mmol/L | TG (DN rats, medium-dose 9 mg/kg): 0.30 ± 0.07^□□ mmol/L | UA (DN rats, medium-dose 9 mg/kg): 27.18 ± 5.37^□□●● μmol/L | Kidney coefficient (DN rats, medium-dose 9 mg/kg): 1.00 ± 0.11% | effect on resisting the DN of rats (overall summary in words): stronger effect in resisting the DN of rats | activity in resisting the type II diabetic nephropathy, A8 compared with LM49 (rat, in vivo): higher activity in resisting the type II diabetic nephropathy than the compound LM49

Reference: patent US20190133968A1, “Applications of benzophenones in preparation of drug” (SHANXI MEDICAL UNIVERSITY, priority 2016, published 2019)
